In paper doi:10.1101/2025.07.08.663693v1 (biorxiv, 2025):

Legend:
[1] = molecular target: T1, hSLIT2-His (Homo sapiens, UniProt O94813); assay: TRIC/MST dose response; assay type: binding
T1 sequence (O94813 31-1529): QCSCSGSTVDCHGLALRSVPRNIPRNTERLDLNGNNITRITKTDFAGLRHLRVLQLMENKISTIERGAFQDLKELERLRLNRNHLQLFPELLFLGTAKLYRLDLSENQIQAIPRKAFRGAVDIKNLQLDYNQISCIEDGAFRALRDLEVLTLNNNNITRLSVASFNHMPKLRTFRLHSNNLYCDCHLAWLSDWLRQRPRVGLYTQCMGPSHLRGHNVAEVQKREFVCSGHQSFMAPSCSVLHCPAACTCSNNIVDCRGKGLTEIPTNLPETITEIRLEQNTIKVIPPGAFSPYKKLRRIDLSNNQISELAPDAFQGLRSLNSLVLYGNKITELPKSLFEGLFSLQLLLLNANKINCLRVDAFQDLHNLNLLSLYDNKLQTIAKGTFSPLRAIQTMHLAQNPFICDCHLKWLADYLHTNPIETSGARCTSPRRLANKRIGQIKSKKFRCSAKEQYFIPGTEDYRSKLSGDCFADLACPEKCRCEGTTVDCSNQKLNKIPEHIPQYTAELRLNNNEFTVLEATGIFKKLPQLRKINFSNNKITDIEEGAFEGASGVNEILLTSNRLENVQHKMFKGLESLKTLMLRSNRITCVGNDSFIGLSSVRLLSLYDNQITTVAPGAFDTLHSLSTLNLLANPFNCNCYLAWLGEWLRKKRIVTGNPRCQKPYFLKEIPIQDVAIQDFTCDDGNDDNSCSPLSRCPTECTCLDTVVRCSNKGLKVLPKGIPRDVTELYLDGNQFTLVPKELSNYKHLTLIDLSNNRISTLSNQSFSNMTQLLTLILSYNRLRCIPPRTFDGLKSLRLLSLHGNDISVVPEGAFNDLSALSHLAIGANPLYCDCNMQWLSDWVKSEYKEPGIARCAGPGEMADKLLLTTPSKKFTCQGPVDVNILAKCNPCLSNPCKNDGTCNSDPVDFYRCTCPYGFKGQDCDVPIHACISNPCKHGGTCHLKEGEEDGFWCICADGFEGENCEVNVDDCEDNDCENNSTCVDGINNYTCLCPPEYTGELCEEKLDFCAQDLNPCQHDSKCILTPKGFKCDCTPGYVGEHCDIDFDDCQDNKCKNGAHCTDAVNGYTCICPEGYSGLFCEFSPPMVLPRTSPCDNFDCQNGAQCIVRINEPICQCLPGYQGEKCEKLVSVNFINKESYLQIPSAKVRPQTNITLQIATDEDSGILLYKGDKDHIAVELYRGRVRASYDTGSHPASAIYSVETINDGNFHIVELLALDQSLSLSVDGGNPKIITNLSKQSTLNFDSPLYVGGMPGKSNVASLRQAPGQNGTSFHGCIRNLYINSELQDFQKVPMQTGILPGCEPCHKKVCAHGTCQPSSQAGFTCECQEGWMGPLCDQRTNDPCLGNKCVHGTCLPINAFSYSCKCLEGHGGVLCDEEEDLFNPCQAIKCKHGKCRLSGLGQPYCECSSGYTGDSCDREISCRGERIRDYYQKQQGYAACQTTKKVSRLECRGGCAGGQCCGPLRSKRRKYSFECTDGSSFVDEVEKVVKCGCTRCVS

[2] = molecular target: T2, SLIT2/ROBO1 (Homo sapiens, UniProt O94813); assay: TR-FRET SLIT2/ROBO1 interaction inhibition; assay type: binding
T2 sequence (O94813 31-1529): T1 sequence (O94813 31-1529)
T2 sequence (Q9Y6N7 26-897 partner limits assumed): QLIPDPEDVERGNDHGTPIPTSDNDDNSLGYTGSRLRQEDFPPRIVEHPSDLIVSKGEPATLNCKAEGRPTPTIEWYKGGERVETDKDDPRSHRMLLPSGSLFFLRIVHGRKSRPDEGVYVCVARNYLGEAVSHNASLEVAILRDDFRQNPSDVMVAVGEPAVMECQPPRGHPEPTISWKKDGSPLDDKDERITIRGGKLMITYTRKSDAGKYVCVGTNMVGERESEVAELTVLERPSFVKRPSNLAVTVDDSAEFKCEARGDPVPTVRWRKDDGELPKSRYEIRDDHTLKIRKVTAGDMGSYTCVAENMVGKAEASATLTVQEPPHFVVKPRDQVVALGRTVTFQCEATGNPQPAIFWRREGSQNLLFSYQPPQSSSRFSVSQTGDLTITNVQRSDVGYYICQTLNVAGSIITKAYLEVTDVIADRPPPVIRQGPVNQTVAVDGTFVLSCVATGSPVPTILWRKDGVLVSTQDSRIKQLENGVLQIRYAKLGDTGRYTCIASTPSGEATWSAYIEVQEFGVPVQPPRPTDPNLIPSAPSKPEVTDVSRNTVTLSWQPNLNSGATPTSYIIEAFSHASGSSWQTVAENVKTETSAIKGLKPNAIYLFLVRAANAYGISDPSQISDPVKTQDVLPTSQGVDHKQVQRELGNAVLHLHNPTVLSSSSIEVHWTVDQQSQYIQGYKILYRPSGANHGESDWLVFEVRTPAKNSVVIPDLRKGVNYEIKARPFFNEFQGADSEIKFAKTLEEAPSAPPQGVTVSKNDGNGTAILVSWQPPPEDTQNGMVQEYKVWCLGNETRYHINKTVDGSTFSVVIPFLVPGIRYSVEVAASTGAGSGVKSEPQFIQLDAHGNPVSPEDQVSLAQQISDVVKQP

Kd [1]: 2.62 µM
IC50 [2]: 22.8 ± 3.85 µM
SMILES: C=C(c1ccc(C(=O)O)cc1)c1cc2c(cc1C)C(C)(C)CCC2(C)C [bexarotene]
